Source: US5055594A, “Fluorogenic trypotophanase substrates” (Becton, Dickinson and Company, priority 1990, dated 1991)

Columns and labels:
Escherichia coli = assay: Determination of the indole reaction of microorganisms (substrate on cellulose disks, AMC release); format: cell-based; details: for FLUORESCENCE INCREASE (ng AMC/min): 3×10^8 cfu/ml, phosphate buffer pH 8.4 with toluene, ex 365 nm, em 440 nm
Protocol: (§1) Aliquots of 20 microliters of a 0.5% solution of the substrate of Example I dissolved in dimethylsulfoxide were added to cellulose disks (catalog no. 740-E, Schleicher and Schuell, Inc. Keene, N.H.). The DMSO was removed by vacuum dessication. The dried disks were placed in the wells of a black polystyrene microwell tray. Four of the disks were each inoculated with 25 microliters of a suspension containing 3×10^8 colony forming units per ml of the known indole positive microorganisms Escherichia coli and Citrobacter diversus and the known indole negative microorganisms Klebsiella pneumoniae and Citrobacter freundii. The suspensions were made in phosphate buffer, pH 8.4, containing toluene at a concentration of 2 drops per 5 ml of buffer to permeabilize the bacteria. Four disks were inoculated with buffer alone to serve as controls. The disks were excited at 365 nm using a xenon lamp and fluorescence was measured at 1 minute intervals for 10 minutes at a wavelength of 440 nm using a Fluoroskan II (Flow Laboratories, McLean, Va. 22102) reader. Results from the four tubes for each organism were averaged and are expressed in the Table as nanograms of free AMC released per minute.

Citrobacter diversus = assay: as above; format: cell-based; details: for FLUORESCENCE INCREASE (ng AMC/min): 3×10^8 cfu/ml, phosphate buffer pH 8.4 with toluene, ex 365 nm, em 440 nm
Protocol: as §1

Klebsiella pneumoniae = assay: as above; format: cell-based
Protocol: as §1

Citrobacter freundii = assay: as above; format: cell-based; details: for FLUORESCENCE INCREASE (ng AMC/min): 3×10^8 cfu/ml, phosphate buffer pH 8.4 with toluene, ex 365 nm, em 440 nm
Protocol: as §1

tryptophanase = assay: Reaction of serine-AMC-carbamate with tryptophanase (fluorescence increase); format: biochemical; details: 1.19×10^-6 M substrate, pH 8.2, 100 μL of 5.0 mq/mL tryptophanase; excitation 365 nm
Protocol: To a 1.19×10^-6 M solution of serine-AMC-carbamate dissolved in 100 mM potassium phosphate buffer, pH 8.2 was added 100 μL of a 5.0 mq/mL solution of tryptophanase. Fluorescence increase was measured at 440 nm, with excitation at 365 nm. Starting fluorescence of the serine-AMC-carbamate solution was 26 relative units. After addition of the enzyme, fluorescence at 440 nM increased at a rate of 97 units/minute. […] Fluorescence increase in the absence of enzyme was negligible.

SMILES: Cc1cc(=O)oc2cc(NC(=O)OC[C@H](N)C(=O)O)ccc12 [serine-AMC-carbamate]
- Fluorescence increase compared with the control (Escherichia coli; E. coli (indole positive), versus buffer control): much larger fluorescence increases
- FLUORESCENCE INCREASE (ng AMC/min) (Escherichia coli; E. coli strain 1W9901N1): 1.53 ng AMC/min
- FLUORESCENCE INCREASE (ng AMC/min) (Escherichia coli; E. coli strain 2W0803N1): 1.85 ng AMC/min
- FLUORESCENCE INCREASE (ng AMC/min) (Escherichia coli; E. coli strain 4H8162N1): 1.6 ng AMC/min
- FLUORESCENCE INCREASE (ng AMC/min) (Escherichia coli; E. coli strain 7W0563N1): 1.7 ng AMC/min
- Fluorescence increase compared with the control (Citrobacter diversus; C. diversus (indole positive), versus buffer control): much larger fluorescence increases
- FLUORESCENCE INCREASE (ng AMC/min) (Citrobacter diversus; C. diversus strain 404): 5.35 ng AMC/min
- FLUORESCENCE INCREASE (ng AMC/min) (Citrobacter diversus; C. diversus strain 2075): 4.4 ng AMC/min
- Fluorescence increase compared with the control (Klebsiella pneumoniae; K. pneumoniae (indole negative), versus buffer control): about the same fluorescence increase as the control
- FLUORESCENCE INCREASE (ng AMC/min) (Klebsiella pneumoniae; K. pneumoniae strain 6N3696N1, 3×10^8 cfu/ml, phosphate buffer pH 8.4 with toluene, ex 365 nm, em 440 nm): 0.5 ng AMC/min
- Fluorescence increase compared with the control (Citrobacter freundii; C. freundii (indole negative), versus buffer control): about the same fluorescence increase as the control
- FLUORESCENCE INCREASE (ng AMC/min) (Citrobacter freundii; C. freundii strain 2027): 0.8 ng AMC/min
- FLUORESCENCE INCREASE (ng AMC/min) (Citrobacter freundii; C. freundii strain 2058): 0.45 ng AMC/min
- Rate of fluorescence increase at 440 nM after addition of the enzyme (tryptophanase): 97 units/minute
